Assay results taken from publication PMC8968063, “Key features of inhibitor binding to the human mitochondrial pyruvate carrier hetero-dimer” (Molecular Metabolism, 2022).

Assays:
human MPC1L/MPC2 complex [1] = biological target: T1, human MPC1L/MPC2 complex (Homo sapiens, UniProt O95563+P0DKB6); assay: nano-DSF thermostability shift assay, purified MPC1L/MPC2; format: binding; conditions: inhibitor 100 μM; for Tm, nano-DSF: unliganded 51.9 ± 0.1, mean ± s.d., 2 biological repeats
T1 construct: eight-histidine tag (C, cleaved yes); TEV protease cleavage site (part stays on MPC2 after digestion) (C, cleaved yes); made in house; host or cells: Saccharomyces cerevisiae SHY15 (mpc triple deletion strain), purified from mitochondria
T1 sequence (P0DKB6 2-136): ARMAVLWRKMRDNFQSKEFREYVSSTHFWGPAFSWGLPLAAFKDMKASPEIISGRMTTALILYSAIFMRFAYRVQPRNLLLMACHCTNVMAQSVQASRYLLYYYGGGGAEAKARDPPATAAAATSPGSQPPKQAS
T1 sequence (O95563 2-127): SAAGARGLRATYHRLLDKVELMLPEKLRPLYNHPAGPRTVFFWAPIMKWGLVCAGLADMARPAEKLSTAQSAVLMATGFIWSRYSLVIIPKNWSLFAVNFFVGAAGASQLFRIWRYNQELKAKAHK
Description: Ligand binding was also assessed using dye-free nano differential scanning fluorimetry (nano-DSF) to monitor fluorescence changes due to altered environments of tryptophan and tyrosine residues during unfolding. Protein samples in buffer containing 20 mM Tris–HCl pH 7.4, 150 mM NaCl, 0.1% (w/v) LMNG, 0.1 mg/mL TOCL, in the presence or absence of the indicated concentrations of small molecule inhibitors, were loaded into capillary tubes, and a temperature ramp of 5 °C/min was applied. The intrinsic fluorescence was measured using the NanoTemper Prometheus NT.48 (NanoTemper, München, Germany).

[2] = biological target: T2, human MPC1L/MPC2 hetero-dimer (Homo sapiens, UniProt O95563+P0DKB6); assay: Inhibition of [14C]-pyruvate homo-exchange in MPC1L/MPC2 proteoliposomes; format: biochemical; conditions: for Inhibition of pyruvate transport, residual activity compared to control: compound 100 μM; for Inhibition of pyruvate transport, residual activity compared to control / IC50: MPC1L/MPC2 proteoliposomes; for IC50: 50 μM [14C]-pyruvate homo-exchange, mean ± s.d., read-out: IC50 of pyruvate transport inhibition; for Inhibitory potency for human MPC1L/MPC2 compared to yeast Mpc1/Mpc3: human vs yeast protein, yeast values ref 15
T2 construct: eight-histidine tag (C, cleaved yes); TEV protease cleavage site (part stays on MPC2 after digestion) (C, cleaved yes); made in house; host or cells: Saccharomyces cerevisiae SHY15 (mpc triple deletion strain), purified from mitochondria
T2 sequence (P0DKB6 2-136): T1 sequence (P0DKB6 2-136)
T2 sequence (O95563 2-127): T1 sequence (O95563 2-127)
Description: Egg L-α-phosphatidylcholine 99% (w/v) (Avanti Polar Lipids, AL, USA) and TOCL were mixed in a 20:1 (w/w) ratio, dried under a stream of nitrogen and washed once with methanol before being dried again. Lipids were hydrated in 20 mM Tris–HCl, pH 8.0, 50 mM NaCl to a concentration of 12 mg/mL. Unlabeled pyruvate was added as a freshly made concentrated stock at a final concentration of 5 mM for internalisation. Lipids were solubilised with 1.2% (v/v) pentaethylene glycol monodecyl ether (Sigma) and freshly purified protein was added at a lipid-to-protein ratio of 250:1 (w/w). Samples were incubated on ice for 5 min, then liposomes were formed by the step-wise removal of pentaethylene glycol monodecyl ether by five additions at 20 min intervals of 60 mg Bio-Beads SM-2 (Bio-Rad, Watford, UK) with gentle mixing at 4 °C. A final addition of 480 mg Bio-Beads was incubated with the samples overnight. Proteoliposomes were first separated from the Bio-Beads by passage through empty spin columns (Bio-Rad, Watford, UK) and subsequently pelleted at 120,000×g for 60 min. The proteoliposomes were resuspended with a thin needle in 150 μL of their supernatant after the rest of the supernatant was removed.
The time course of pyruvate homo-exchange was measured at room temperature. The transport was initiated by diluting proteoliposomes 200-fold into external buffer, 20 mM MES, pH 6.4, 50 mM NaCl, containing 50 μM [^14C]-pyruvate (500,000 dpm, Perkin Elmer, MA, USA). The reaction (0–30 s) was terminated by rapid dilution into 8 volumes of ice-cold internal buffer (20 mM Tris–HCl, pH 8.0, 50 mM NaCl), followed by rapid filtration through cellulose nitrate 0.45 μm filters (Millipore, Gillingham, UK) and washing with an additional 8 volumes of buffer. The filters were dissolved in Ultima Gold scintillation liquid (Perkin Elmer, MA, USA) and the radioactivity was counted with a Perkin Elmer Tri-Carb 2800 RT liquid scintillation counter. […] The data analysis was performed with non-linear regression fittings using GraphPad Prism 7.0d ([Inhibitor] vs response, variable slope). The specific uptake rates were calculated based on the amount of protein used in reconstitutions, as estimated from bicinchoninic acid assay. The biological repeats represent independent proteoliposome preparations using protein from independent purifications.

MPC1/MPC2 hetero-dimer = biological target: T3, MPC1/MPC2 hetero-dimer (Homo sapiens, UniProt O95563+Q9Y5U8); assay: CPM thermostability shift assay, MPC1/MPC2; format: binding; conditions: 100 μM inhibitor
T3 construct: eight-histidine tag (C, cleaved yes); Factor Xa cleavage site (C, cleaved yes); made in house; host or cells: Saccharomyces cerevisiae SHY15 (mpc triple deletion strain), purified from mitochondria
T3 sequence (Q9Y5U8 2-109 limits assumed): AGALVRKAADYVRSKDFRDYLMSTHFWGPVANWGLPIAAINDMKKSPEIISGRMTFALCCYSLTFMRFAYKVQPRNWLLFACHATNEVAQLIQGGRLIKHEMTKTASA
T3 sequence (O95563 2-127 limits assumed): T1 sequence (O95563 2-127)
Description: (§1) The assessment of ligand binding was performed via shifts in protein thermostability upon binding using thermal denaturation on a rotary quantitative PCR (qPCR) instrument (Qiagen Rotor-Gene Q 2plex HRM, Venlo, Netherlands), as previously described. In this method, cysteine residues, buried within the protein structure, become solvent-exposed during denaturation in a temperature ramp and then react with 7-diethylamino-3-(4-maleimidophenyl)-4-methylcoumarin (CPM) to form fluorescent-adducts. Briefly, a CPM working solution was prepared by diluting the CPM stock (5 mg/mL in dimethyl sulfoxide) 50-fold into assay buffer (20 mM Tris–HCl, pH 7.4, 150 mM NaCl, 0.1% (w/v) LMNG, 0.1 mg/mL TOCL) and incubated for 10 min at room temperature. In each analysis, performed in duplicates or triplicates, 3 μg of purified MPC was diluted into 45 μL of assay buffer containing the desired concentration of the inhibitor then incubated for 10 min on ice. Next, 5 μL of the CPM working solution were added. Samples were incubated on ice for an additional 10 min then subjected to a temperature ramp of 5.6 °C/min. The fluorescence increase was monitored with the HRM channel of the instrument (excitation at 440–480 nm, emission at 505–515 nm). Unfolding profiles were analysed with the Rotor-Gene Q software 2.3, and the peaks of their derivatives were used to determine the apparent melting temperature.

MPC2 protomer = biological target: T4, MPC2 protomer (Homo sapiens, UniProt O95563); assay: CPM thermostability shift assay, individually purified MPC2; format: binding; conditions: 100 μM inhibitor
T4 construct: Factor Xa or TEV cleavage site followed by eight-histidine tag (C); made in house
T4 sequence (O95563 1-127): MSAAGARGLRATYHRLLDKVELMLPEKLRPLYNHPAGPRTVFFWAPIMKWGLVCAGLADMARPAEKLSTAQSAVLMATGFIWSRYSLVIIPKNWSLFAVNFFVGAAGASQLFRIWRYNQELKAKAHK
Description: as §1

human MPC1L/MPC2 complex [3] = biological target: T1, human MPC1L/MPC2 complex; assay: CPM thermostability shift assay, purified MPC1L/MPC2; format: binding; conditions: for ΔTm at 100 µM: read-out: ∆Tm, CPM assay (thermal shift compared to no-ligand control); for Tm, CPM assay: unliganded 51.3 ± 0.2, mean ± s.d., 3 biological repeats
Description: as §1

mammalian MPCs = conditions: isolated mitochondria; cited from earlier work
[4] = biological target: T5, recombinant human MPC1L/MPC2 (Homo sapiens, UniProt O95563+P0DKB6); assay: Electrospray mass spectrometry of MPC1L/MPC2 after reaction with inhibitors or sulfhydryl modifiers; conditions: for Mass difference (observed vs calculated), MPC1L (2–136) / Mass difference (observed vs calculated), MPC1L (5–136) / Mass difference (observed vs calculated), MPC2 (2–137): MPC1L/MPC2 after reaction with compound; for Covalent modification of MPC protomers (molecular mass change): folded MPC1L/MPC2 incubated with compound, ESI-MS
T5 construct: MPC1L (2–136); MPC2 (2–137); eight-histidine tag (C, cleaved yes); TEV protease cleavage site (part stays on MPC2 after digestion) (C, cleaved yes); made in house; host or cells: Saccharomyces cerevisiae SHY15 (mpc triple deletion strain), purified from mitochondria
T5 sequence (P0DKB6 2-136 limits assumed): T1 sequence (P0DKB6 2-136)
T5 sequence (O95563 2-127 limits assumed): T1 sequence (O95563 2-127)
Description: Different MPC inhibitors (Table1) or sulfhydryl reagents were first incubated with MPC1L/MPC2 in a folded state, then the protein molecular masses were measured by electrospray mass spectrometry. The MPC subunits (10 μg) were resolved by reverse-phase HPLC on a PLRP-S column (1.0 mm i.d. X 75 mm; VARIAN) using a gradient of 2-propanol in a solvent system compatible with the recovery of membrane proteins (Carroll et al., 2009). The eluate (50 μL/min) was introduced into a QTRAP4000 (SCIEX) mass spectrometer operating in positive ion single MS mode. The instrument was scanned from 700 m/z to 2300 m/z after calibration with ions from a mixture of 1.0 μM of myoglobin and 1.5 μM trypsinogen. Molecular masses were obtained by reconstruction of the spectra of multiply charged ions using PeakView (SCIEX).

Row | ∆Tm, nano-DSF (human MPC1L/MPC2 complex [1]) [°C] | Tm, nano-DSF (human MPC1L/MPC2 complex [1]) [°C] | Inhibition of pyruvate transport, residual activity compared to control [2] | ΔTm at 100 µM (human MPC1L/MPC2 complex [3]; inhibitor 100 μM) [°C] | Tm, CPM assay (human MPC1L/MPC2 complex [3]; inhibitor 100 μM) [°C] | ∆Tm, nano-DSF (human MPC1L/MPC2 complex [1]; listed as lonidamine) | IC50 [2] [nM] | Inhibitory potency for human MPC1L/MPC2 compared to yeast Mpc1/Mpc3 [2] | Thermal shift in the CPM assay (human MPC1L/MPC2 complex [3]; compound 1 mM) | ∆Tm, CPM assay (thermal shift compared to no-ligand control) (human MPC1L/MPC2 complex [3]; inhibitor 100 μM) | Mass difference (observed vs calculated), MPC1L (2–136) [4] [Da] | Mass difference (observed vs calculated), MPC1L (5–136) [4] [Da] | Mass difference (observed vs calculated), MPC2 (2–137) [4] [Da] | Covalent modification of MPC protomers (molecular mass change) [4] | SMILES | Thermostability shift of MPC1/MPC2 (MPC1/MPC2 hetero-dimer) | Thermostability shift of MPC2 alone (MPC2 protomer) | Ki (mammalian MPCs) [nM]
1 | 0.6 ± 0.3 | 52.5 ± 0.2 |  | -0.2 ± 0.5 | 51.1 ± 0.3 | No thermal shifts | 4600 ± 1300 | much higher potencies | negative thermal shift | No thermal shifts |  |  |  |  | O=C(O)c1nn(Cc2ccc(Cl)cc2Cl)c2ccccc12 [Lonidamine, lonidamine] |  |  | 2500
2 | 9.2 ± 0.7 | 61.1 ± 0.6 | completely inhibited | 11.2 ± 1.1 | 62.5 ± 0.9 |  |  |  |  |  | 0.6 | 0.6 | 1.7 | no molecular mass differences | N#CC(=Cc1cn(-c2ccccc2)c2ccccc12)C(=O)O [UK5099, α-cyano-β-(1-phenylindol-3-yl)-acrylate] |  |  | ~50
3 | 6.3 ± 0.4 | 58.2 ± 0.3 | completely inhibited | 7.5 ± 0.6 | 58.8 ± 0.4 |  | 321 ± 42 | much higher potencies |  |  | 0.4 | 0.3 | 1.5 | no molecular mass differences | CCCOc1ccccc1-c1nc2nn[nH]c2c(=O)[nH]1 [Zaprinast] | strong shifts | neither CHC nor zaprinast showed any shift | 

Row | SMILES | ∆Tm, nano-DSF (human MPC1L/MPC2 complex [1]) [°C] | Tm, nano-DSF (human MPC1L/MPC2 complex [1]) [°C] | Inhibition of pyruvate transport, residual activity compared to control [2] | ΔTm at 100 µM (human MPC1L/MPC2 complex [3]; inhibitor 100 μM) [°C] | Tm, CPM assay (human MPC1L/MPC2 complex [3]; inhibitor 100 μM) [°C] | ∆Tm, nano-DSF (human MPC1L/MPC2 complex [1]; listed as lonidamine) | IC50 [2] [nM] | Inhibitory potency for human MPC1L/MPC2 compared to yeast Mpc1/Mpc3 [2] | Thermal shift in the CPM assay (human MPC1L/MPC2 complex [3]; compound 1 mM) | ∆Tm, CPM assay (thermal shift compared to no-ligand control) (human MPC1L/MPC2 complex [3]; inhibitor 100 μM) | Mass difference (observed vs calculated), MPC1L (2–136) [4] [Da] | Mass difference (observed vs calculated), MPC1L (5–136) [4] [Da] | Mass difference (observed vs calculated), MPC2 (2–137) [4] [Da] | Covalent modification of MPC protomers (molecular mass change) [4] | Thermostability shift of MPC1/MPC2 (MPC1/MPC2 hetero-dimer) | Thermostability shift of MPC2 alone (MPC2 protomer) | Ki (mammalian MPCs) [nM]
4 | N#CC(=Cc1ccc(O)cc1)C(=O)O [CHC, α-cyano-4-hydroxy-cinnamate] | 7.0 ± 0.5 | 58.9 ± 0.4 | completely inhibited | 8.3 ± 0.6 | 59.6 ± 0.4 |  |  |  |  |  |  |  |  |  | strong shifts | neither CHC nor zaprinast showed any shift | 
